In the assay the target is 5-HT2A (Homo sapiens (Human), UniProt P28223). The assay can be described thus: Radioligand binding assay, [^3H]5-HT competition, 5-HT2A. Particulars: [^3H]5-HT radioligand, membranes of HEK293 cells expressing recombinant 5-HT2A; Ki from IC50 by Cheng-Prusoff; read-out: 5-HT2A serotonin binding Ki value.
5-HT2A, sequence (P28223 whole entry): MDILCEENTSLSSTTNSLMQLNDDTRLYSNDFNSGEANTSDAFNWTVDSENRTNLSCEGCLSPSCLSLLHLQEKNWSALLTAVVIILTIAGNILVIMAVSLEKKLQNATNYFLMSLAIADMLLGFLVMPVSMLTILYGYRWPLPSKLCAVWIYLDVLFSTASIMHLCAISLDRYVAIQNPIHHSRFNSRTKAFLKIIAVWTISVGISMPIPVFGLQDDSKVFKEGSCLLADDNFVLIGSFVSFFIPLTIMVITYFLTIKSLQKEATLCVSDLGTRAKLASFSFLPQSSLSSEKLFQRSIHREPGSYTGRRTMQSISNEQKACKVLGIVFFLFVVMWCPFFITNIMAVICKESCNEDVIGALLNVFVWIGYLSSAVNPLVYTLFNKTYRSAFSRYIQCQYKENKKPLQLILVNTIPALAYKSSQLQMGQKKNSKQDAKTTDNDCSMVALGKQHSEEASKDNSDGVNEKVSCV
A word on the Ki: it is a measure of affinity in units of concentration, obtained from inhibition or displacement. With `Cc1ncnc(C)c1-c1cc(NC(=O)C2CC2)ccc1OCCN1CCC2(CC1)CNC2=O` [Compound 347, N-(3-(4,6-dimethylpyrimidin-5-yl)-4-(2-(1-oxo-2,7-diazaspiro[3.5]nonan-7-yl)ethoxy)phenyl)cyclopropanecarboxamide], the Ki is 42.3 nM.

For `Cc1ncnc(C)c1-c1cc(NC(=O)C2CC2)ccc1OCCN1CCC2(CC1)CC(=O)N2` [Compound 348, N-(3-(4,6-dimethylpyrimidin-5-yl)-4-(2-(2-oxo-1,7-diazaspiro[3.5]nonan-7-yl)ethoxy)phenyl)cyclopropanecarboxamide], the Ki stood at 66.6 nM.

Regarding `Cc1ncnc(C)c1-c1cc(NC(=O)C2CC2)ccc1OCCN1CCC2(CCC(=O)O2)CC1` [Compound 349, N-(3-(4,6-dimethylpyrimidin-5-yl)-4-(2-(2-oxo-1-oxa-8-azaspiro[4.5]decan-8-yl)ethoxy)phenyl)cyclopropanecarboxamide], the Ki came out at 12.6 nM. Next, `Cc1ncnc(C)c1-c1cc(NC(=O)C2CC2)ccc1OCCN1CCC2(CCOC2=O)CC1` [Compound 350, N-(3-(4,6-dimethylpyrimidin-5-yl)-4-(2-(1-oxo-2-oxa-8-azaspiro[4.5]decan-8-yl)ethoxy)phenyl)cyclopropanecarboxamide]: 43.1 nM; `CO[C@H]1CCN(CCOc2ccc(NC(=O)C3CC3)cc2-c2c(C)ncnc2C)C1` [Compound 352, (S)—N-(3-(4,6-dimethylpyrimidin-5-yl)-4-(2-(3-methoxypyrrolidin-1-yl)ethoxy)phenyl)cyclopropanecarboxamide]: 15.5 nM. Next, `COCCN(C)CCOc1ccc(NC(=O)C2CC2)cc1-c1c(C)ncnc1C` [Compound 354, N-[3-(4,6-dimethylpyrimidin-5-yl)-4-[2-[2-methoxyethyl(methyl)amino]ethoxy]phenyl]cyclopropanecarboxamide]: 32.1 nM; `CCN(CCOC)CCOc1ccc(NC(=O)C2CC2)cc1-c1c(C)ncnc1C` [Compound 355, N-(3-(4,6-dimethylpyrimidin-5-yl)-4-(2-(ethyl (2-methoxyethyl)amino)ethoxy)phenyl)cyclopropanecarboxamide]: 177 nM; `CCCN(CCOC)CCOc1ccc(NC(=O)C2CC2)cc1-c1c(C)ncnc1C` [Compound 356, N-(3-(4,6-dimethylpyrimidin-5-yl)-4-(2-((2-methoxyethyl)(propyl)amino)ethoxy)phenyl)cyclopropanecarboxamide]: 533 nM. Turning to `Cc1ncnc(C)c1-c1cc(NC(=O)C2CC2)ccc1OCCN(C)CCO` [Compound 357, N-(3-(4,6-dimethylpyrimidin-5-yl)-4-(2-((2-hydroxyethyl)(methyl)amino)ethoxy)phenyl)cyclopropanecarboxamide], the Ki stood at 47.3 nM. With `CCN(CCO)CCOc1ccc(NC(=O)C2CC2)cc1-c1c(C)ncnc1C` [Compound 358, N-(3-(4,6-dimethylpyrimidin-5-yl)-4-(2-(ethyl(2-hydroxyethyl)amino)ethoxy)phenyl)cyclopropanecarboxamide], the inhibition constant Ki was 66.7 nM. As to `CCCN(CCO)CCOc1ccc(NC(=O)C2CC2)cc1-c1c(C)ncnc1C` [Compound 359, N-(3-(4,6-dimethylpyrimidin-5-yl)-4-(2-((2-hydroxyethyl)(propyl)amino)ethoxy)phenyl)cyclopropanecarboxamide], the inhibition constant (Ki) was 102 nM. On to `Cc1ncnc(C)c1-c1cc(NC(=O)C2CC2)ccc1OCCN(C)CCF` [Compound 360, N-(3-(4,6-dimethylpyrimidin-5-yl)-4-(2-((2-fluoroethyl)(methyl)amino)ethoxy)phenyl)cyclopropanecarboxamide], for which the inhibitory constant (Ki) amounted to 11 nM. For `CCN(CCF)CCOc1ccc(NC(=O)C2CC2)cc1-c1c(C)ncnc1C` [Compound 362, N-[3-(4,6-dimethylpyrimidin-5-yl)-4-[2-[ethyl (2-fluoroethyl)amino]ethoxy]phenyl]cyclopropanecarboxamide], the Ki was 96.5 nM. With `CCCN(CCF)CCOc1ccc(NC(=O)C2CC2)cc1-c1c(C)ncnc1C` [Compound 363, N-[3-(4,6-dimethylpyrimidin-5-yl)-4-[2-[2-fluoroethyl(propyl)amino]ethoxy]phenyl]cyclopropanecarboxamide], the Ki is 107 nM. Consider `Cc1ncnc(C)c1-c1cc(NC(=O)C2CC2)ccc1OCCN(C)CCS(C)(=O)=O` [Compound 364, N-(3-(4,6-dimethylpyrimidin-5-yl)-4-(2-(methyl(2-(methylsulfonyl)ethyl)amino)ethoxy)phenyl)cyclopropanecarboxamide], for which the inhibitory constant (Ki) was 368 nM. As to `Cc1ncnc(C)c1-c1cc(NC(=O)C2CC2)ccc1OCCN(C)CC[S+](C)[O-]` (stereo not shown) [Compound 365, N-[3-(4,6-dimethylpyrimidin-5-yl)-4-[2-[methyl (2-methylsulfinylethyl)amino]ethoxy]phenyl]cyclopropanecarboxamide], the Ki is 232 nM. Turning to `CCN(C)CCOc1ccc(NC(=O)C2CC2)cc1-c1c(C)ncnc1C` [Compound 366, N-[3-(4,6-dimethylpyrimidin-5-yl)-4-[2-[ethyl(methyl)amino]ethoxy]phenyl]cyclopropanecarboxamide], the inhibition constant (Ki) came out at 11.2 nM. Regarding `CCCN(C)CCOc1ccc(NC(=O)C2CC2)cc1-c1c(C)ncnc1C` [Compound 367, N-(3-(4,6-dimethylpyrimidin-5-yl)-4-(2-(methyl(propyl)amino)ethoxy)phenyl)cyclopropanecarboxamide], the Ki is 37.6 nM.

Consider `Cc1ncnc(C)c1-c1cc(NC(=O)C2CC2)ccc1OCCN(C)CC1CC1` [Compound 368, N-(4-(2-((cyclopropylmethyl)(methyl)amino)ethoxy)-3-(4,6-dimethylpyrimidin-5-yl)phenyl)cyclopropanecarboxamide], for which the Ki came to 19.6 nM. `Cc1ncnc(C)c1-c1cc(NC(=O)C2CC2)ccc1OCCN(C)C1CCC1` [Compound 369, N-(4-(2-(cyclobutyl(methyl)amino)ethoxy)-3-(4,6-dimethylpyrimidin-5-yl)phenyl)cyclopropanecarboxamide]: the Ki is 51.8 nM. In the case of `CCN(CC)CCOc1ccc(NC(=O)C2CC2)cc1-c1c(C)ncnc1C` [Compound 370, N-(4-(2-(diethylamino)ethoxy)-3-(4,6-dimethylpyrimidin-5-yl)phenyl)cyclopropanecarboxamide], the Ki was found to be 78.6 nM. Take `COCCNCCOc1ccc(NC(=O)c2ccccc2)cc1-c1c(C)ncnc1C` [Compound 371, N-(3-(4,6-dimethylpyrimidin-5-yl)-4-(2-((2-methoxyethyl)amino)ethoxy)phenyl)benzamide]: the inhibitory constant (Ki) was determined as 4.77 nM. Take `COCCNCCOc1ccc(NC(=O)c2cccc(OC)c2)cc1-c1c(C)ncnc1C` [Compound 372, N-(3-(4,6-dimethylpyrimidin-5-yl)-4-(2-((2-methoxyethyl)amino)ethoxy)phenyl)-3-methoxybenzamide]: the Ki came to 1.99 nM. `COCCNCCOc1ccc(NC(=O)c2cccc(F)c2)cc1-c1c(C)ncnc1C` [Compound 373, N-(3-(4,6-dimethylpyrimidin-5-yl)-4-(2-((2-methoxyethyl)amino)ethoxy)phenyl)-3-fluorobenzamide]: the Ki amounted to 1.73 nM. Regarding `COCCNCCOc1ccc(NC(=O)c2ccc(F)cc2)cc1-c1c(C)ncnc1C` [Compound 374, N-(3-(4,6-dimethylpyrimidin-5-yl)-4-(2-((2-methoxyethyl)amino)ethoxy)phenyl)-4-fluorobenzamide], the inhibition constant Ki was 3.44 nM. As for `COCCNCCOc1ccc(NC(=O)c2c(F)cnn2C)cc1-c1c(C)ncnc1C` [Compound 375, N-(3-(4,6-dimethylpyrimidin-5-yl)-4-(2-((2-methoxyethyl)amino)ethoxy)phenyl)-4-fluoro-1-methyl-1H-pyrazole-5-carboxamide], the inhibition constant (Ki) is 13.3 nM. Under `COCCN(C)CCOc1ccc(NC(=O)c2ccccc2)cc1-c1c(C)ncnc1C` [Compound 376, N-(3-(4,6-dimethylpyrimidin-5-yl)-4-(2-((2-methoxyethyl) (methyl)amino)ethoxy)phenyl)benzamide] stands 63.3 nM; under `COCCN(C)CCOc1ccc(NC(=O)c2cccc(OC)c2)cc1-c1c(C)ncnc1C` [Compound 377, N-(3-(4,6-dimethylpyrimidin-5-yl)-4-(2-((2-methoxyethyl)(methyl)amino)ethoxy)phenyl)-3-methoxybenzamide], 2.64 nM; under `COCCN(C)CCOc1ccc(NC(=O)c2cccc(F)c2)cc1-c1c(C)ncnc1C` [Compound 378, N-(3-(4,6-dimethylpyrimidin-5-yl)-4-(2-((2-methoxyethyl)(methyl)amino)ethoxy)phenyl)-3-fluorobenzamide], 12.5 nM. As for `COCCN(C)CCOc1ccc(NC(=O)c2ccc(F)cc2)cc1-c1c(C)ncnc1C` [Compound 379, N-(3-(4,6-dimethylpyrimidin-5-yl)-4-(2-((2-methoxyethyl)(methyl)amino)ethoxy)phenyl)-4-fluorobenzamide], the inhibition constant Ki is 8.38 nM. For the compound `COCCN(C)CCOc1ccc(NC(=O)c2c(F)cnn2C)cc1-c1c(C)ncnc1C` [Compound 380, N-(3-(4,6-dimethylpyrimidin-5-yl)-4-(2-((2-methoxyethyl)(methyl)amino)ethoxy)phenyl)-4-fluoro-1-methyl-1H-pyrazole-5-carboxamide], the Ki was determined as 9.47 nM. As for `Cc1ncnc(C)c1-c1cc(NC(=O)c2ccccc2)ccc1OCCN1C[C@@H]2C[C@H]1CO2` [Compound 381, N-(4-(2-((1S,4S)-2-oxa-5-azabicyclo[2.2.1]heptan-5-yl)ethoxy)-3-(4,6-dimethylpyrimidin-5-yl)phenyl)benzamide], the Ki was found to be 5.54 nM. For the compound `Cc1ncnc(C)c1-c1cc(NC(=O)C2(F)CC2)ccc1OCCN1C[C@@H]2C[C@H]1CO2` [Compound 382, N-(4-(2-((1S,4S)-2-oxa-5-azabicyclo[2.2.1]heptan-5-yl)ethoxy)-3-(4,6-dimethylpyrimidin-5-yl)phenyl)-1-fluorocyclopropane-1-carboxamide], the inhibition constant Ki came out at 8.81 nM. `Cc1ncnc(C)c1-c1cc(NC(=O)c2ccnn2C)ccc1OCCN1C[C@@H]2C[C@H]1CO2` [Compound 383, N-(4-(2-((1S,4S)-2-oxa-5-azabicyclo[2.2.1]heptan-5-yl)ethoxy)-3-(4,6-dimethylpyrimidin-5-yl)phenyl)-1-methyl-1H-pyrazole-5-carboxamide]: the Ki is 8.89 nM.

The values are drawn from patent publication US20250270172A1, “Pyrimidine Derivatives As Modulators of the 5-HT2A Serotonin Receptor Useful For The Treatment of Disorders Related Thereto” (Arena Pharmaceuticals, Inc., priority 2020, published 2025).
